Test results taken from patent US20050154046A1, “Methods of treating an inflammatory-related disease” (priority 2004, published 2005).
Entries after “also recorded” stand apart in the source; their conditions may differ.

What was measured:
[1] = tested on: chronic myeloid leukemia (CML); conditions: cited from earlier work
CDK2 = biological target: T1, CDK2 (Homo sapiens, UniProt P24941); assay: Cyclin dependent kinase activity in THP-1 cells (immunoprecipitation, histone H1 phosphorylation); type: cell-based; conditions: 24 h
T1 construct: endogenous in cells; host or cells: THP-1
Method: (§1) 2) Effects of Meisoindigo and/or NATURA on activity of cyclin dependent kinases (CDK) in THP-1 cells (99): THP-1 cells grown exponentially were exposed to […] of Meisoindigo or NATURA for 24 hr, respectively.
(§2) The cells were harvested, washed, and total proteins extracted as described previously (100). One hundred μg of the proteins were immuno-precipitated using antibodies against either cdk2, cdk4/6 or cyclin D1 overnight at 4° C. in the presence of a cocktail of protease inhibitors. The immuno-precipitates were washed 4 times with protein extraction buffer and once with kinase assay buffer, and reacted with […] histone H1 in the presence of [γ-^32P]-ATP (10 μCi/10 μM). The phosphorylated histone H1 (represent cdk activity) was measured by scintillation counting or by SDS-polyacrylaimde gel electrophoresis (101, 102).

IL-2 = IL-2 secretion in LPS-stimulated THP-1 cells; type: cell-based, human; conditions: cells could not be stimulated to secrete IL-2
IL-6 = IL-6 secretion (ELISA) in LPS-stimulated THP-1 cells; type: cell-based, human
Method: Standard IL-6 protein was used to establish a standard curve for the calculation of IL-6 in the medium secreted by the cells (LPS-stimulated or non-stimulated cells in the presence or absence of Meisoindigo).
(§5) 1) Effects of Meisoindigo and NATURA on the expression/secretion of cytokines IL-1β, IL-6, IL-10: The human monocytic THP-1 cells grown exponentially were stimulated with or without 1 μM of lipopolysaccharide (LPS, Sigma), and exposed for 24 hours to different concentrations of Meisoindigo and NATURA (from 31.25 nM and 62.5 nM), respectively. Viability of cells was examined by trypan blue exception assay.

mouse vaginal epithelium = assay: Mitotic index in estrogen-stimulated vaginal epithelium of female mice; type: in vivo, Kunming mice; conditions: 200.0 mg/kg orally once a day, 3 days; percent of mitotic cells
Text: (§3) Materials: Meisoindigo was synthesized, purified and its structure characterized by Natrogen Therapeutics, Inc. The purity of the compound was 98.5% as described in the Examples above. A suspension of Meisoindigo was freshly prepared in 0.5% sodium methylcellulose and given orally for the animal tests described below. Other chemicals used in the following experiments were purchased from Sigma.
(§4) Pathogen-free female Kunming mice at 12 weeks of age with body weights from 22 to 25 grams were housed 5 per cage, and given, ad libitum, fresh tap water and commercial rodent pellets. Animal rooms were controlled at 24±2° C. with a relative humidity of 60±5% and a 12 hour light/dark cycle (07:00-19:00 hr).
Anti-mitotic Effects of Meisoindigo on Mouse Vaginal Epithelium: Sixty Kunming female mice were randomly divided into 5 groups, 20 in one control group, and 10 in 4 drug-tested groups. All mice were given estrogen at a dose of 0.2 mg/animal for 3 days to allow vaginal epithelial cells to develop under the stimulation of estrogen hormone. Meisoindigo was freshly prepared as a suspension in 0.5% of sodium methylcellulose. The drug was given orally at doses of 50, 100, and 200 mg/kg, respectively, once a day for 3 days. Methotrexate (MTX) was used as a positive control at a dose of 1 mg/kg, i.p. once a day for the same period of time. […] The mitotic index (percent of mitotic cells) was calculated.

cdk4/6 = assay: Cyclin dependent kinase activity in THP-1 cells (immunoprecipitation, histone H1 phosphorylation); type: cell-based, human; conditions: 31.25 and 62.5 nM, 24 h
Method: as §1, §2

cyclin D1 = assay: Cyclin D1 levels in THP-1 cells; type: cell-based, human; conditions: 31.25 and 62.5 nM, 24 h; data not shown
IL-15 = IL-15 real time PCR in LPS-stimulated THP-1 cells; type: cell-based, human; conditions: data not shown
THP-1 cells = assay: Viability of THP-1 cells by trypan blue staining; type: cell-based, human; conditions: up to 8 μM
Method: Methods: The cells were stimulated with or without […] of lipopolysaccharide (LPS, Sigma), and exposed for 24 hours to different concentrations of Meisoindigo (from 31.25 nM to 16,000 nM). Viability of cells was examined under microscope after trypan blue staining. Protein levels of IL-1β secreted into the culture media by the cells were then measured by ELISA and calculated from its standard curve using an assay Kit from R&D Systems according to instructions provided by the supplier. The method was established and validated by a good standard curve obtained.

IL-1β = IL-1β secretion (ELISA) in LPS-stimulated THP-1 cells; type: cell-based, human
Method: It was prepared in a solution of dimethyl sulfoxide (DMSO), and stored under −20° C. for the experiments in vitro. Human monocytic cell line, THP-1 (90), was purchased from ATCC. The cells were maintained according to the supplier's instructions. Approximately 1×10^5 cells/ml were cultured at 37° C., 5% CO2 for 24 hours in Modified RPMI-1640 Medium (Invitrogen) supplemented with 10% FBS.
Statistical Analysis: All data were expressed as a mean±SD. Statistical significance of any difference between the control (LPS) and experimental groups was determined by the Student's t-test. P values between the 2 groups must be at least smaller than 0.05 to be considered statistically significant.
as §5

[2] = tested on: scale epithelial cells of mouse-tails; assay: Mouse-tail model: granular layer formation in scale epithelial cells; type: in vivo, Kunming mice; conditions: 13 days
Text: as §3, §4
Effect of Meisoindigo on Epidermal Cell Differentiation in Mouse Tails: Sixty female Kunming mice were randomly divided into 5 groups, 20 in one control group, and 10 in 4 drug-tested groups. Meisoindigo was freshly prepared as a suspension in 0.5% of sodium methylcellulose. The drug was given orally at doses of 50, 100, and 200 mg/kg, respectively, once a day for 13 days. Methotrexate (MTX) was used as a positive control at a dose of 1 mg/kg, i.p. once every 2 days, for the same period of time. The same volume and vehicle for Meisoindigo suspension were used as a negative control. […] Slides were prepared for histological examination as originally described by Bosman et. al., (106). The slides were prepared by cutting the tails into longitudinal sections, and Hematoxylin and Eosin (H&E) stained. The slides were then examined with a light microscope to evaluate the degree of orthokeratosis (OK) and epidermal hyperplasia. The former was done by measuring the horizontal length of the fully developed granular layer stratum granulosum within an individual scale in relation to its total length. Drug activity was defined by the increase of the positive scale cells containing granular layer stratum granulosum between two folliculus pili.

[3] = LPS-stimulated THP-1 cells, LPS alone 100.00
[4] = as low as 31.25 nM (31.25 and 62.5 nM in FIG. 6), 24 h

In the case of `CN1C(=O)/C(=C2/C(=O)Nc3ccccc32)c2ccccc21` [Meisoindigo], the side effects reported ([1]; 150 mg per day, China) is listed as “very minor side effects”, the “total dosage needed to achieve the maximal remission of CML” value [1] is listed as 8696 mg and the “partial inhibition of CDK activity” value (CDK2; 1.5 μM, FIG. 6B) is listed as 23%. The “inhibition of CDK2 activity” value (CDK2; 31.25 and 62.50 nM) was “failed to inhibit; also recorded: no inhibitory effect”, the “effect on IL-2 secretion” value (IL-2) was “no effects were observed” and the “reduction of IL-6 secretion” value (IL-6; 31.25 nM, LPS 1 μg/ml, THP-1 cells) was “Approximately 85%”. For the same compound, the “IL-6 (Inhibition), Percentage of Maximal Response Without Cytotoxicity” value (IL-6; [3]) was 83.51 ± 5.41%, the “effect on IL-6 production/secretion” value (IL-6; [4]) was “significantly inhibit” and the “Mitotic Index (X ± SD)” value (mouse vaginal epithelium) was 16.06±2.66. The “inhibition of cyclin dependent kinase 4 and 6 activity” value (cdk4/6) was “failed to inhibit”, the “effect on levels of cyclin D1” value (cyclin D1) was “failed to inhibit” and the “inhibition on IL-15 (real time PCR)” value (IL-15) was “moderate inhibition”. The cell deaths (THP-1 cells) was “no cell deaths were observed”, the “reduction of the LPS mediated IL-1β secretion” value (IL-1β; 31.25 nM, 24 h, LPS-stimulated THP-1 cells) was “over 50%” and the “IL-1β (Inhibition), Percentage of Maximal Response Without Cytotoxicity” value (IL-1β; [3]) was 48.76 ± 3.68%. The “effect on IL-1β production” value (IL-1β; [4]) was “significantly inhibit”, the “further reduction of IL-1β secretion on increasing the concentration” value (IL-1β; up to 8 μM) was “did not result in further reduction” and the “Granulous Scales (X ± SD)” value ([2]; 50.0 mg/kg orally once a day) was 22.37 ± 6.20. For the same compound, the “Granulous Scales (X ± SD)” value ([2]; 100.0 mg/kg orally once a day) was 25.98 ± 4.12 and the “Granulous Scales (X ± SD)” value ([2]; 200.0 mg/kg orally once a day) was 31.30 ± 7.92.
